Organism: Rattus norvegicus
Test: DrugMatrix - Regimen: Daily Repeat
Type: toxicity, organism-based, Sprague-Dawley
Set-up: regimen Daily Repeat, gender Male, age 6-8 weeks
Details: in vivo, po, 200 mg/kg, route oral GAVAGE, dose level Low, […]; for ABSOLUTE BASOPHIL / ABSOLUTE EOSINOPHIL / ABSOLUTE LYMPHOCYTE / ABSOLUTE MONOCYTE / ABSOLUTE SEGMENTED NEUTROPHIL / BASOPHIL / EOSINOPHIL / ERYTHROCYTE COUNT / HEMATOCRIT / HEMOGLOBIN / LEUKOCYTE COUNT / LYMPHOCYTE / MEAN CORPUSCULAR HEMOGLOBIN / MEAN CORPUSCULAR HEMOGLOBIN CONCENTRATION / MEAN CORPUSCULAR VOLUME / MONOCYTE / NEUTROPHIL / NUCLEATED RED BLOOD CELLS / PLATELET COUNT: tissue Blood
[1] = 72 h, tissue Plasma, time 3 day
[2] = 120 h, tissue Plasma, time 5 day

SMILES: CCOc1ccc(NC(C)=O)cc1 [PHENACETIN]
- ABSOLUTE BASOPHIL (72 h, time 3 day): 0 CELLS/uL
- ABSOLUTE EOSINOPHIL (72 h, time 3 day): 0 CELLS/uL
- ABSOLUTE LYMPHOCYTE (72 h, time 3 day): 12319.33 CELLS/uL
- ABSOLUTE MONOCYTE (72 h, time 3 day): 297 CELLS/uL
- ABSOLUTE SEGMENTED NEUTROPHIL (72 h, time 3 day): 1617 CELLS/uL
- BASOPHIL (72 h, time 3 day): 0%
- EOSINOPHIL (72 h, time 3 day): 0%
- ERYTHROCYTE COUNT (72 h, time 3 day): 5.63 x10E6/uL
- HEMATOCRIT (72 h, time 3 day): 34.9%
- HEMOGLOBIN (72 h, time 3 day): 13.6 G/DL
- LEUKOCYTE COUNT (72 h, time 3 day): 14.23 x10E3/uL
- LYMPHOCYTE (72 h, time 3 day): 87%
- MEAN CORPUSCULAR HEMOGLOBIN (72 h, time 3 day): 24.17 pg
- MEAN CORPUSCULAR HEMOGLOBIN CONCENTRATION (72 h, time 3 day): 38.97 G/DL
- MEAN CORPUSCULAR VOLUME (72 h, time 3 day): 62.03 fL
- MONOCYTE (72 h, time 3 day): 2%
- NEUTROPHIL (72 h, time 3 day): 11%
- NUCLEATED RED BLOOD CELLS (72 h, time 3 day): 0 /100WBC
- PLATELET COUNT (72 h, time 3 day): 1192.67 x10E3/uL
- ALANINE AMINOTRANSFERASE [1]: 73 u/L
- ALBUMIN [1]: 4.07 G/DL
- ALKALINE PHOSPHATASE [1]: 405 u/L
- ASPARTATE AMINOTRANSFERASE [1]: 98.33 u/L
- BLOOD UREA NITROGEN [1]: 12 mg/dL
- CARBON DIOXIDE [1]: 24.67 mmol/L
- CHLORIDE [1]: 101 MEQ/L
- CHOLESTEROL [1]: 65.33 mg/dL
- CREATININE [1]: 0.2 mg/dL
- GLUCOSE [1]: 172 mg/dL
- LACTATE DEHYDROGENASE [1]: 186.33 u/L
- LIPASE [1]: 11.33 u/L
- PHOSPHORUS [1]: 11.6 mg/dL
- POTASSIUM [1]: 6.01 MEQ/L
- SODIUM [1]: 142.63 MEQ/L
- TOTAL BILIRUBIN [1]: 0.2 mg/dL
- TOTAL PROTEIN [1]: 5.6 G/DL
- URIC ACID [1]: 1.77 mg/dL
- ABSOLUTE BASOPHIL (120 h, time 5 day): 0 CELLS/uL
- ABSOLUTE EOSINOPHIL (120 h, time 5 day): 0 CELLS/uL
- ABSOLUTE LYMPHOCYTE (120 h, time 5 day): 14305.33 CELLS/uL
- ABSOLUTE MONOCYTE (120 h, time 5 day): 246 CELLS/uL
- ABSOLUTE SEGMENTED NEUTROPHIL (120 h, time 5 day): 1648.67 CELLS/uL
- BASOPHIL (120 h, time 5 day): 0%
- EOSINOPHIL (120 h, time 5 day): 0%
- ERYTHROCYTE COUNT (120 h, time 5 day): 5.8 x10E6/uL
- HEMATOCRIT (120 h, time 5 day): 35.23%
- HEMOGLOBIN (120 h, time 5 day): 14.07 G/DL
- LEUKOCYTE COUNT (120 h, time 5 day): 16.2 x10E3/uL
- LYMPHOCYTE (120 h, time 5 day): 88%
- MEAN CORPUSCULAR HEMOGLOBIN (120 h, time 5 day): 24.27 pg
- MEAN CORPUSCULAR HEMOGLOBIN CONCENTRATION (120 h, time 5 day): 39.93 G/DL
- MEAN CORPUSCULAR VOLUME (120 h, time 5 day): 60.8 fL
- MONOCYTE (120 h, time 5 day): 1.67%
- NEUTROPHIL (120 h, time 5 day): 10.33%
- NUCLEATED RED BLOOD CELLS (120 h, time 5 day): 0 /100WBC
- PLATELET COUNT (120 h, time 5 day): 1381.67 x10E3/uL
- ALANINE AMINOTRANSFERASE [2]: 72.67 u/L
- ALBUMIN [2]: 4.13 G/DL
- ALKALINE PHOSPHATASE [2]: 403.33 u/L
- ASPARTATE AMINOTRANSFERASE [2]: 95.33 u/L
- BLOOD UREA NITROGEN [2]: 13.33 mg/dL
- CARBON DIOXIDE [2]: 31.33 mmol/L
- CHLORIDE [2]: 101.33 MEQ/L
- CHOLESTEROL [2]: 68.67 mg/dL
- CREATINE PHOSPHOKINASE [2]: 257.33 u/L
- CREATININE [2]: 0.19 mg/dL
- GLUCOSE [2]: 164.67 mg/dL
- LACTATE DEHYDROGENASE [2]: 323.67 u/L
- LIPASE [2]: 11.67 u/L
- PHOSPHORUS [2]: 10.7 mg/dL
- POTASSIUM [2]: 6.24 MEQ/L
- SODIUM [2]: 143.9 MEQ/L
- TOTAL BILIRUBIN [2]: 0.2 mg/dL
- TOTAL PROTEIN [2]: 5.87 G/DL
- URIC ACID [2]: 1.77 mg/dL

— ChEMBL document CHEMBL3885881, “DrugMatrix”
